Source: patent US11517598B2 (priority 2016, dated 2022)
“Also recorded” adds a separate entry of the source. Read-outs that look alike come from different tables or passages of the source.

How the values were obtained:
[1] = system: oncolytic VSVΔ51 in 786-0 renal carcinoma cells
[2] = system: cytokine, chemokine and IFN stimulated gene expression in 786-0 cells; format: cell-based, human
[3] = system: VSVΔ51-GFP in normal lung, muscle and spleen tissue cores; format: cell-based, mouse
[4] = system: HSV-1 (mutant N212) in 786-0 cells; format: cell-based, human
[5] = system: CXCL9 in various human cancer cell lines; format: cell-based
STAT1 = format: cell-based, human
[6] = system: VSVΔ51 matrix (M) mRNA in CT26-WT colon cancer cells; format: cell-based, mouse
[7] = mouse, in vivo
IFITM1 = format: cell-based, human
IFITM1, sequence (P13164 whole entry): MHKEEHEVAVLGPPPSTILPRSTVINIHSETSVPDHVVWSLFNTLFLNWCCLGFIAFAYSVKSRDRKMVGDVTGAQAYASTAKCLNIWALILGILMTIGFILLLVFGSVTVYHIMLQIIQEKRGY

[8] = system: VSVΔ51 in GM38 fibroblasts; format: cell-based, human
CT26-LacZ tumors = conditions: mouse, in vivo
CT26WT tumors = conditions: mouse
VSVwt in 786-0 cells = format: cell-based, human
[9] = system: VSVΔ51 matrix (M) mRNA in 786-0 cells; format: cell-based, human
[10] = system: various human and rodent cancer cell lines
[11] = system: Measles virus in 786-0 cells; format: cell-based, human
[12] = system: CT26WT, 4T1, DBT, and Pan02 tumors; conditions: mouse, in vivo
[13] = system: VSVΔ51-GFP in CT26WT and DBT tumor cores; format: cell-based, mouse
bilateral DBT tumors = conditions: mouse, in vivo
STAT2 = format: cell-based, human
[14] = system: Sindbis virus in 786-0 cells; format: cell-based, human

Compound: potassium permanganate [Manganese, reference compound]
- VSVΔ51 growth (viral titer, GFP positive cell counts) [1]: neither Manganese, Molybdene, or Tungsten oxide salts could enhance VSVΔ51 growth

Compound: Vanadium(IV) oxide sulfate hydrate [VS]
- VSVΔ51 growth (viral titer, GFP positive cell counts) [1]: effectively enhanced VSVΔ51 growth

Compound: Ammonium metavanadate
- VSVΔ51 growth (viral titer, GFP positive cell counts) [1]: effectively enhanced VSVΔ51 growth

Compound: Vanadium(V) oxytriethoxide [VOx]
- VSVΔ51 growth (viral titer, GFP positive cell counts) [1]: effectively enhanced VSVΔ51 growth

Compound: Sodium orthovanadate
- gene set-enrichment (GOrilla), compound alone [2]: induced inflammatory responses, and immune system processes
- growth of VSVΔ51-GFP in normal tissue cores (fluorescence) [3]: not in normal tissue cores
- HSV-1 growth [4]: robustly inhibited
- CXCL9 secretion (ELISA) [5]: vanadate-mediated increase
- IFN-β induced phosphorylation of STAT1 (STAT1): not altered by treatment with vanadate
- IFNβ-induced STAT1 phosphorylation and nuclear accumulation (STAT1): did not similarly affect STAT1
- localisation of activated STAT1 (immunofluorescence) (STAT1): translocated to the nucleus
- phosphorylation of STAT1 at baseline (STAT1): increased by vanadate at baseline
- VSVΔ51 matrix (M) protein mRNA and/or viral genomes [6]: increased the production of VSVΔ51 matrix (M) protein mRNA and/or viral genomes
- toxicity [7]: evidence of toxicity was observed
- toxicity ([7]; pH 7): greatly reduced
- protein expression levels of IFITM1 (IFITM1): potently repressed
- VSVΔ51 viral growth in normal cells [8]: viral growth was not enhanced
- enhancing effect on survival (CT26-LacZ tumors): completely abrogated
- T-cells within the tumor (CT26WT tumors; in vivo): increased accumulation of T-cells within the tumor
- re-challenge of cured mice with the same cancer cells (CT26WT tumors; in vivo): became immune to re-challenge
- in vivo virus-enhancing activity at pH 7 (CT26WT tumors; pH 7): retained its activity
- wtVSV yield (VSVwt in 786-0 cells): modest improvements in wtVSV yield
- VSVΔ51 matrix (M) protein mRNA and/or viral genomes [9]: increased the production of VSVΔ51 matrix (M) protein mRNA and/or viral genomes
- cytotoxicity (cell viability) with VSVΔ51 co-infection [10]: A similar effect
- yield of Measles virus [11]: improved
- survival, combination with VSVΔ51 [12]: significantly improved survival; also recorded: significantly prolonged over virus alone
- virus-associated luciferase gene expression (IVIS) [12]: robustly enhanced virus-associated luciferase gene expression
- growth of VSVΔ51-GFP in tumor cores (fluorescence) [13]: robustly increased the growth of the virus in tumor cores
- tumor regression with monotherapy (bilateral DBT tumors): some tumors did regress
- virus-associated luminescence (bilateral DBT tumors): uniquely enhanced by vanadate in the injected tumors on the right side
- IFNβ-induced phosphorylation of STAT2 (STAT2): inhibited the IFNβ-induced phosphorylation of STAT2
- STAT2 nuclear accumulation (STAT2): reduced its nuclear accumulation
- localisation of STAT-2 (immunofluorescence) (STAT2): remained mostly in the cytoplasm
- yield of Sindbis virus [14]: improved
- effect on viral growth when given post infection [1]: close to nil
- impact on viral growth with pre-treatment time [1]: increasingly evident with increasing pre-treatment time
- number of virus-infected cells (GFP) [1]: marked increase in the number of virus-infected cells
- pro-viral activity with metal chelating agent [1]: abrogated upon inclusion of L-Ascorbic Acid
- viral output (viral titer by plaque assay) [1]: significantly increase viral output
- virus-enhancing activity at different pH (protonation state) [1]: had no impact on its activity
- yield of VSVΔ51 in single and multi-step growth curves [1]: more robustly enhanced the yield of VSVΔ51 when provided at low multiplicity of infection (MOI) compared to high MOI

Compound: Chromium(VI) oxide [Chromium trioxide, reference compound]
- VSVΔ51 growth (viral titer) [1]: did enhance viral growth but only at a single dose tested
- toxicity (not shown) [1]: highly toxic in comparison to orthovanadate

Compound: Tungsten [reference compound]
- VSVΔ51 growth (viral titer, GFP positive cell counts) [1]: neither Manganese, Molybdene, or Tungsten oxide salts could enhance VSVΔ51 growth

Compound: CC(=O)N[C@@H](CS)C(=O)O [NAC, N-acetyl-L-cysteine, reference compound]
- effect of NAC on vanadate-enhanced viral spread (viral titer) [1]: did not abrogate vanadate's capacity to enhance viral spread

Compound: Bis(maltolato) oxovanadium(IV) [BMOV]
- VSVΔ51 growth (viral titer, GFP positive cell counts) [1]: effectively enhanced VSVΔ51 growth
